Laboratory results reported in US9512180B2, “Compstatin analogs” (THE REGENTS OF THE UNIVERSITY OF CALIFORNIA, priority 2012, dated 2016).
“Also recorded” adds a separate entry of the source. Bridge positions count the residues as written; N and C are the ends. Peptide text beside a SMILES is read from it.

How the values were obtained:
[1] = system: complement alternative pathway (AP); assay: C5b-9 ELISA (inhibition of C5b-9 terminal complex formation); type: biochemical, human; conditions: table 13; read-out: C5b-9 ELISA IC50
Method: (§1) Inhibition of the complement alternative pathway (AP) by compstatin family peptides was assayed by ELISA. Peptides were dissolved in phosphate buffered saline (PBS, 150 mM). Initial peptide concentrations were calculated using the Beer-Lambert Law with an extinction coefficient of 5,500 (1/M·cm) for Trp and 5,470 (1/M·cm) for methylated-Trp present in the sequence, at 280 nm. Nunc Maxisorp 96-well plates were coated with 1 μg lipopolysaccharides (LPS) from Salmonella enteriditis for ˜16 h at room temperature. Plates were washed three times with PBS/0.05% Tween-20 (PBS-T) between each step. Plates were blocked with 4% bovine serum albumin (BSA) in PBS-T for 1 h at 37° C. Serial peptide dilutions were performed in 96-well plates, using gelatin veronal-buffered saline with 5 mM MgCl2 and 10 mM EGTA (GVBS-MgEGTA). Normal human serum (Complement Technology Inc., Tyler, Tex., USA) was diluted in GVBS-MgEGTA and mixed with compstatin serial dilutions to a final concentration of 30%. Serum diluted in GVBS-MgEGTA and GVBS (containing 20 mM EDTA) were used as positive and negative controls for complement activation, respectively. Dilutions were preincubated for 15 minutes at room temperature, transferred to ELISA plates, and incubated for 1 h at 37° C. Generation of C3b and C5b-9 were assayed using horseradish peroxidase (HRP)-conjugated anti-C3 (MP Biomedicals, Solon, Ohio, USA) and anti-05b-9 aEll (Abcam, Cambridge, Mass., USA), respectively. Plates were washed and incubated with either anti-C3-HRP (1:5000 in 1% BSA/PBS-T) or anti-05b-9 (1:1000 in 1% BSA/PBS-T) for 1 h at 37° C. For C5b-9 detection, primary antibody incubation was followed by incubation with anti-mouse-HRP (BioRad, Hercules, Calif., USA) for 1 h at 37° C. (1:5000 in 1% BSA/PBS-T). Bound C3b and C5b-9 were quantified using a 3,3′,5,5′-tetramethylbenzidine substrate solution containing urea hydrogen peroxide in 0.11 M sodium acetate buffer, followed by a 1 N H2SO4 acid stop. Plates were measured spectrophotometrically at 450 nm. Percent inhibition of C3b and C5b-9 deposition was plotted against peptide concentration and the data was fitted to a logistic dose response curve with Prism software (GraphPad, San Diego, Calif., USA) to determine IC50 values.
(§2) In all assays, MgEGTA was used to chelate Ca′ ions required for classical/lectin pathway complement activation, while providing Mg′ necessary for AP activation. ELISAs allow for direct detection of C3b and C5b-9 formed during AP activation, while erythrocyte lysis assays provide a functional assessment of AP-mediated hemolysis in serum. […] Table 9 summarizes the IC50 values derived from the three different assays. […] The relative potencies of the peptides, based on the measured ICH values, are consistent across all three assays (Peptide III˜Peptide VI˜Peptide IX>Peptide I>Parent). Based on the assay conditions used in this study, peptides inhibited C5b-9 formation with moderately better efficacy than formation of C3b, while slightly higher concentrations were necessary to inhibit AP-mediated hemolysis.

[2] = system: complement alternative pathway (AP); assay: C3b ELISA (inhibition of C3b formation); type: biochemical, human; conditions: table 13; read-out: C3b ELISA IC50
Method: as §1, §2

[3] = system: complement alternative pathway (AP); assay: Hemolytic assay (rabbit erythrocyte lysis in human serum); type: cell-based; conditions: table 13; read-out: Lysis IC50
Method: Inhibition of complement was also measured via lysis of erythrocytes. Rabbit erythrocytes (Complement Technology Inc., Tyler, Tex., USA) were washed in PBS and resuspended in veronal-buffered saline with 5 mM MgCl2 and 10 mM EGTA (VBS-MgEGTA). Peptide and serum dilutions were prepared as described above, and 1×10^7 erythrocytes were added to each serum/peptide mixture. Erythrocytes diluted in sterile deionized water and in VBS-MgEGTA were used as positive and negative controls for lysis, respectively. Plates were incubated for 20 minutes at 37° C., and centrifuged at 2500×g for 10 minutes.
In all assays, MgEGTA was used to chelate Ca′ ions required for classical/lectin pathway complement activation, while providing Mg′ necessary for AP activation. ELISAs allow for direct detection of C3b and C5b-9 formed during AP activation, while erythrocyte lysis assays provide a functional assessment of AP-mediated hemolysis in serum.

complement system = assay: Preliminary ELISA-based complement system inhibition assays, human serum; type: biochemical; conditions: preliminary data
From the text: For some of the peptides studied here, W1, W13, R1, and S-1S0, there is experimental evidence for inhibitory activity against hC3. […] The structural rationale was that the positively charged backbone amino group was disrupting the hydrophobic cluster at the termini (spanning residues 11-C2-V3-V4/C12/T13 of native compstatin), which was deemed necessary for binding and activity before the availability of the structure of the C3c-W4A9 complex, and that upon removal of the positive charge by acetylation the hydrophobic cluster was fortified and contributed to the 3-fold increase in activity. […] The peptide with the diserine extension is expected to be active, as the diserine was present at the N-terminus of the original 32-amino acid peptide that was identified in the phage-display and a subsequent study.

hC3 = hC3 (Homo sapiens, UniProt P01024); assay: Activity measurements of inhibitory activity against hC3 (method not described); conditions: relative to W4A9
[4] = Experimental solubility of analogs (method not described); type: physicochemical; conditions: aqueous environment

Chain of hC3 (P01024 23-1663): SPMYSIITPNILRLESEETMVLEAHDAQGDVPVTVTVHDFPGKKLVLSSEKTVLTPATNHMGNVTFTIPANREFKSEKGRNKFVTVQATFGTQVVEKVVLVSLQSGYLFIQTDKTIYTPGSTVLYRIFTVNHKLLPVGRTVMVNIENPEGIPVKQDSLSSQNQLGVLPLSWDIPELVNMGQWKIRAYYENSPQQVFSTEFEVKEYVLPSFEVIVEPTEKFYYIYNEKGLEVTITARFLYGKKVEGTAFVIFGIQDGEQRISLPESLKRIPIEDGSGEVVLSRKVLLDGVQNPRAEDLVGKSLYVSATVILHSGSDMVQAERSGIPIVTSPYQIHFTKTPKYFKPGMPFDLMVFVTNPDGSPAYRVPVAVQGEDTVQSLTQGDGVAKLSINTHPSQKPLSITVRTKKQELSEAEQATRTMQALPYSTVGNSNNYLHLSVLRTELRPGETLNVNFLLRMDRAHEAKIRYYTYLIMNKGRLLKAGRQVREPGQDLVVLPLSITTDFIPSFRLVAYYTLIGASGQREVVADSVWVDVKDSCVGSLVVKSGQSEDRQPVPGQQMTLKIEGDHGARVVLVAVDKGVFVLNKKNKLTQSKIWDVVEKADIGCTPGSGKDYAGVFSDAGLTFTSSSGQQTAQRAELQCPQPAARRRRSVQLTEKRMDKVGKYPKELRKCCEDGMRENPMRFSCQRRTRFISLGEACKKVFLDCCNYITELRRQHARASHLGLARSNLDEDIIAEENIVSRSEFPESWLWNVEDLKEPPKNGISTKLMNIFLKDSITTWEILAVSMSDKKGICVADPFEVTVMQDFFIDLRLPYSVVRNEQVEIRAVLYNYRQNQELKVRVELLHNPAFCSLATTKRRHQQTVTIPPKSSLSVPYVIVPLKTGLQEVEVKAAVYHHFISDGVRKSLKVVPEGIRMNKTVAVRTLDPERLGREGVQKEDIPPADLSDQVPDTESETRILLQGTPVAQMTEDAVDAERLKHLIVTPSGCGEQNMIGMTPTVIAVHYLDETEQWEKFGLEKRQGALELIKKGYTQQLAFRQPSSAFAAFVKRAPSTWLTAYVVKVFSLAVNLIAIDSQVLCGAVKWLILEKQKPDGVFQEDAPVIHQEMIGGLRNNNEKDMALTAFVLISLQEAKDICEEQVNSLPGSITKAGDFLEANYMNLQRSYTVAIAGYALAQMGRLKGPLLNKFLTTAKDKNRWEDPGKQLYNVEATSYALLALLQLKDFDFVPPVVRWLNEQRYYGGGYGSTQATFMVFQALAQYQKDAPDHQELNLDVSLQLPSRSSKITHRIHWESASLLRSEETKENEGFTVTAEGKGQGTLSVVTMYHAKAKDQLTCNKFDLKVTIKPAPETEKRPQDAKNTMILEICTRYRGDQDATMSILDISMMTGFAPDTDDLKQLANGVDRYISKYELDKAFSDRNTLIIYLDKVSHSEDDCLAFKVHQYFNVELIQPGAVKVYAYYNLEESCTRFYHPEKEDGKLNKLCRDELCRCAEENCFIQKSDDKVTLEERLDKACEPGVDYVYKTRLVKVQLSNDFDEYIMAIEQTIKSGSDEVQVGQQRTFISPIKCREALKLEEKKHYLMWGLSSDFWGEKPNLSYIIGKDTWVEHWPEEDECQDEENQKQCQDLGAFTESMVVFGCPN

| Compound | IC50 [1] [µM] | IC50 [2] [µM] | IC50 [3] [µM] | inhibitory activity in human serum (in words) (complement system) | inhibitory activity against hC3 (in words) (hC3) | solubility (in words) [4] |
| --- | --- | --- | --- | --- | --- | --- |
| CC[C@H](C)[C@H](NC(=O)[C@H](CCCNC(=N)N)NC(=O)[C@H](CCC(=O)O)NC(C)=O)C(=O)N[C@H]1CSSC[C@@H](C(=O)N[C@H](C(N)=O)[C@@H](C)O)NC(=O)[C@H](CCCNC(=N)N)NC(=O)[C@H](Cc2c[nH]cn2)NC(=O)[C@H](C)NC(=O)CNC(=O)[C@H](Cc2c[nH]c3ccccc23)NC(=O)[C@H](CC(=O)O)NC(=O)[C@H](CCC(N)=O)NC(=O)[C@H](Cc2c[nH]c3ccccc23)NC(=O)[C@H](C(C)C)NC1=O [Peptide 3.1, Ac-ER-ICV WQDWGA HRCT-NH2] | 0.5 ± 0.1 | 0.9 ± 0.1 | 0.9 ± 0.2 | – | – | – |
| CC(=O)N[C@@H](CC(N)=O)C(=O)N[C@@H](CC(N)=O)C(=O)N[C@@H](CC(C)C)C(=O)N[C@H]1CSSC[C@@H](C(=O)N[C@H](C(N)=O)[C@@H](C)O)NC(=O)[C@H](CCCNC(=N)N)NC(=O)[C@H](Cc2c[nH]cn2)NC(=O)[C@H](C)NC(=O)CNC(=O)[C@H](Cc2c[nH]c3ccccc23)NC(=O)[C@H](CC(=O)O)NC(=O)[C@H](CCC(N)=O)NC(=O)[C@H](Cc2c[nH]c3ccccc23)NC(=O)[C@H](C(C)C)NC1=O [Peptide 3.2, Ac-NN-LCV WQDWGA HRCT-NH2] (Ac-NNLCVWQDWGAHRCT-NH2; disulfide 4-14) | 0.5 ± 0.1 | 0.6 ± 0.1 | 0.3 ± 0.1 | – | – | – |
| CC(=O)N[C@@H](CC(N)=O)C(=O)N[C@@H](CCCNC(=N)N)C(=O)N[C@@H](CC(C)C)C(=O)N[C@H]1CSSC[C@@H](C(=O)N[C@H](C(N)=O)[C@@H](C)O)NC(=O)[C@H](CCCNC(=N)N)NC(=O)[C@H](Cc2c[nH]cn2)NC(=O)[C@H](C)NC(=O)CNC(=O)[C@H](Cc2c[nH]c3ccccc23)NC(=O)[C@H](CC(=O)O)NC(=O)[C@H](CCC(N)=O)NC(=O)[C@H](Cc2c[nH]c3ccccc23)NC(=O)[C@H](C(C)C)NC1=O [Peptide 3.3, Ac-NR-LCV WQDWGA HRCT-NH2] (Ac-NRLCVWQDWGAHRCT-NH2; disulfide 4-14) | 0.5 ± 0.1 | 0.6 ± 0.1 | 0.3 ± 0.1 | – | – | – |
| CC[C@H](C)[C@H](NC(=O)[C@H](CO)NC(=O)[C@H](CCCNC(=N)N)NC(C)=O)C(=O)N[C@H]1CSSC[C@@H](C(=O)N[C@H](C(N)=O)[C@@H](C)O)NC(=O)[C@H](CCCNC(=N)N)NC(=O)[C@H](Cc2c[nH]cn2)NC(=O)[C@H](C)NC(=O)CNC(=O)[C@H](Cc2c[nH]c3ccccc23)NC(=O)[C@H](CC(=O)O)NC(=O)[C@H](CCC(N)=O)NC(=O)[C@H](Cc2c[nH]c3ccccc23)NC(=O)[C@H](C(C)C)NC1=O [Peptide 3.4, Ac-RS-ICV WQDWGA HRCT-NH2] | 0.6 ± 0.1 | 0.7 ± 0.1 | 0.3 ± 0.1 | – | – | – |
| CC[C@H](C)[C@H](NC(=O)[C@H](CO)NC(=O)[C@H](CO)NC(C)=O)C(=O)N[C@H]1CSSC[C@@H](C(=O)N[C@H](C(N)=O)[C@@H](C)O)NC(=O)[C@H](CCCNC(=N)N)NC(=O)[C@H](Cc2c[nH]cn2)NC(=O)[C@H](C)NC(=O)CNC(=O)[C@H](Cc2c[nH]c3ccccc23)NC(=O)[C@H](CC(=O)O)NC(=O)[C@H](CCC(N)=O)NC(=O)[C@H](Cc2c[nH]c3ccccc23)NC(=O)[C@H](C(C)C)NC1=O [Peptide IV, Ac-SS-ICV WQDWGA HRCT-NH2] | – | – | – | higher than those of native compstatin and slightly lower than those of the W4A9 analog | – | – |
| CC(=O)N[C@@H](Cc1c[nH]c2ccccc12)C(=O)N[C@H]1CSSC[C@@H](C(=O)N[C@@H](Cc2c[nH]c3ccccc23)C(N)=O)NC(=O)[C@H](CCCNC(=N)N)NC(=O)[C@H](Cc2c[nH]cn2)NC(=O)[C@H](C)NC(=O)CNC(=O)[C@H](Cc2c[nH]c3ccccc23)NC(=O)[C@H](CC(=O)O)NC(=O)[C@H](CCC(N)=O)NC(=O)[C@H](Cc2c[nH]c3ccccc23)NC(=O)[C@H](C(C)C)NC1=O [Peptide W1W13] (Ac-WCVWQDWGAHRCW-NH2; disulfide 2-12) | – | – | – | – | slightly reduced activities | slightly reduced activities and solubilities |
| CC(=O)N[C@@H](Cc1c[nH]c2ccccc12)C(=O)N[C@H]1CSSC[C@@H](C(=O)N[C@H](C(N)=O)[C@@H](C)O)NC(=O)[C@H](CCCNC(=N)N)NC(=O)[C@H](Cc2c[nH]cn2)NC(=O)[C@H](C)NC(=O)CNC(=O)[C@H](Cc2c[nH]c3ccccc23)NC(=O)[C@H](CC(=O)O)NC(=O)[C@H](CCC(N)=O)NC(=O)[C@H](Cc2c[nH]c3ccccc23)NC(=O)[C@H](C(C)C)NC1=O [Peptide W1] (Ac-WCVWQDWGAHRCT-NH2; disulfide 2-12) | – | – | – | – | near-W4A9 inhibitory activity | good solubility |
| CC[C@H](C)[C@H](NC(C)=O)C(=O)N[C@H]1CSSC[C@@H](C(=O)N[C@@H](Cc2c[nH]c3ccccc23)C(N)=O)NC(=O)[C@H](CCCNC(=N)N)NC(=O)[C@H](Cc2c[nH]cn2)NC(=O)[C@H](C)NC(=O)CNC(=O)[C@H](Cc2c[nH]c3ccccc23)NC(=O)[C@H](CC(=O)O)NC(=O)[C@H](CCC(N)=O)NC(=O)[C@H](Cc2c[nH]c3ccccc23)NC(=O)[C@H](C(C)C)NC1=O [Peptide W13] (Ac-ICVWQDWGAHRCW-NH2; disulfide 2-12) | – | – | – | – | slightly reduced activities | slightly reduced activities and solubilities; also recorded: solubility problems in aqueous environment |
